Test results from patent publication US11572590B2, “Methods for evaluating tumor cell spheroids using 3D microfluidic cell culture device” (Dana-Farber Cancer Institute, Inc., priority 2017, dated 2023).
Like-named read-outs stand apart in the source and are kept apart here.

Columns and labels:
Test in all cases: SelectScreen Kinase Profiling, single point inhibition and IC50 for off-target kinases
Format in all cases: biochemical
off-target kinases [1] = biological target: off-target kinases (Homo sapiens, UniProt P08581, M1250T); details: MET M1250T, mutant y, ZLYTE, ATP Km app
off-target kinases [2] = biological target: off-target kinases (Homo sapiens, UniProt P16234, T674I); details: PDGFRA T674I, mutant y, ZLYTE, ATP Km app
off-target kinases (Homo sapiens, UniProt P16234, T674I), sequence (P16234 24-1089 T674I): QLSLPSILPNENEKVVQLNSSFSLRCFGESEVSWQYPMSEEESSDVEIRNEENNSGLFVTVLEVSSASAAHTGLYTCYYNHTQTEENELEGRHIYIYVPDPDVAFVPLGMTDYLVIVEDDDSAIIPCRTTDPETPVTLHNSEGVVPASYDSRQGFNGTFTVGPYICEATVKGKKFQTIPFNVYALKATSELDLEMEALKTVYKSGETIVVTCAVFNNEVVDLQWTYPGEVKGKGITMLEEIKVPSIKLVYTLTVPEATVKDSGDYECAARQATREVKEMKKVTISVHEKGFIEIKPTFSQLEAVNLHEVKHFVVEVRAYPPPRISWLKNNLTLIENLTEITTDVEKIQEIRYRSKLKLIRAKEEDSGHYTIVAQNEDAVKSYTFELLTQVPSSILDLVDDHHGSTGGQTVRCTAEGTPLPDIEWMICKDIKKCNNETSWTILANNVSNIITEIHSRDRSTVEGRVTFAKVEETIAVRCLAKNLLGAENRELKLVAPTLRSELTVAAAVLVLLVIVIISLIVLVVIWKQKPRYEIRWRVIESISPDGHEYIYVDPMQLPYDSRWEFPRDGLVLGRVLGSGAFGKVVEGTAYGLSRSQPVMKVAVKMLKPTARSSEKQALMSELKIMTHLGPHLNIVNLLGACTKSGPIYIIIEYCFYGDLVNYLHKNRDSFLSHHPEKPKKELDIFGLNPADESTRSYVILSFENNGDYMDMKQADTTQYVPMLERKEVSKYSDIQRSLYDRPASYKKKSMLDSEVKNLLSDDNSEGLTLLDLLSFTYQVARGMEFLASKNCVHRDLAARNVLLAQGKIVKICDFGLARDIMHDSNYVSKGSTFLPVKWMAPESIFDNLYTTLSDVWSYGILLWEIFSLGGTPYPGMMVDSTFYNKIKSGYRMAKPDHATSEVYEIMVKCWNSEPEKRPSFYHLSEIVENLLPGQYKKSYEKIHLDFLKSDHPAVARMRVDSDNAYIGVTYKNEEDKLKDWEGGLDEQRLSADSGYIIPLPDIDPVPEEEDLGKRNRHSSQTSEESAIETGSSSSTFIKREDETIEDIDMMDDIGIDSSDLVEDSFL

off-target kinases [3] = biological target: off-target kinases (Homo sapiens, UniProt P36894); details: BMPR1A (ALK3), LanthaScreen Binding
off-target kinases (Homo sapiens, UniProt P36894), sequence (P36894 24-532): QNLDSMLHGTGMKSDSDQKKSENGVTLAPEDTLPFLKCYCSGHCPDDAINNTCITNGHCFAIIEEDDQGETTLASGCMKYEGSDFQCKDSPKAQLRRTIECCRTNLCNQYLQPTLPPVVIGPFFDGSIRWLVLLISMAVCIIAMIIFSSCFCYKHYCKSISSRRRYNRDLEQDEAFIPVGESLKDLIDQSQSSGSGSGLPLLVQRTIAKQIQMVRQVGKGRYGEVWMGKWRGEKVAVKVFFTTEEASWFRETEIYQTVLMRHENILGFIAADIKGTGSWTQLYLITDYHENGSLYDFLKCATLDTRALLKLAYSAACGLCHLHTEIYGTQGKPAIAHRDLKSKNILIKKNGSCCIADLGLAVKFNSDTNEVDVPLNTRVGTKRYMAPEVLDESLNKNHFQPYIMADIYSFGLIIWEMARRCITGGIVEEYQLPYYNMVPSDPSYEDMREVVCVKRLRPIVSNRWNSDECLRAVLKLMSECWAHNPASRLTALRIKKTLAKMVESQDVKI

off-target kinases [4] = biological target: off-target kinases (Homo sapiens, UniProt P37023); details: ACVRL1 (ALK1), LanthaScreen Binding
off-target kinases (Homo sapiens, UniProt P37023), sequence (P37023 22-503): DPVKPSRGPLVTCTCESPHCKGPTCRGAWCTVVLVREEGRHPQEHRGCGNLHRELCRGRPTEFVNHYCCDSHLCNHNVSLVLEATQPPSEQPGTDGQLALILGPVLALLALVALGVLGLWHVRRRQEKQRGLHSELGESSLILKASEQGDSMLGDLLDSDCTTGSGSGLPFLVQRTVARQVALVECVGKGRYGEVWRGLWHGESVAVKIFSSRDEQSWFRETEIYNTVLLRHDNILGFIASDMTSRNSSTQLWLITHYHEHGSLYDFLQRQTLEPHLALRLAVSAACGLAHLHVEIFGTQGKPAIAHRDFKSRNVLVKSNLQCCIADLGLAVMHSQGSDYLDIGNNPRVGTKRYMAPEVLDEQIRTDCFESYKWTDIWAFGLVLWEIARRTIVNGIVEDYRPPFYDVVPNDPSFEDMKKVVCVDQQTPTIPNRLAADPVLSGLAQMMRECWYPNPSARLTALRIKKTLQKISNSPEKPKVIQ

off-target kinases [5] = biological target: T1, off-target kinases (Homo sapiens, UniProt P42681); details: TXK, ZLYTE, ATP Km app
T1 sequence (P42681 1-527): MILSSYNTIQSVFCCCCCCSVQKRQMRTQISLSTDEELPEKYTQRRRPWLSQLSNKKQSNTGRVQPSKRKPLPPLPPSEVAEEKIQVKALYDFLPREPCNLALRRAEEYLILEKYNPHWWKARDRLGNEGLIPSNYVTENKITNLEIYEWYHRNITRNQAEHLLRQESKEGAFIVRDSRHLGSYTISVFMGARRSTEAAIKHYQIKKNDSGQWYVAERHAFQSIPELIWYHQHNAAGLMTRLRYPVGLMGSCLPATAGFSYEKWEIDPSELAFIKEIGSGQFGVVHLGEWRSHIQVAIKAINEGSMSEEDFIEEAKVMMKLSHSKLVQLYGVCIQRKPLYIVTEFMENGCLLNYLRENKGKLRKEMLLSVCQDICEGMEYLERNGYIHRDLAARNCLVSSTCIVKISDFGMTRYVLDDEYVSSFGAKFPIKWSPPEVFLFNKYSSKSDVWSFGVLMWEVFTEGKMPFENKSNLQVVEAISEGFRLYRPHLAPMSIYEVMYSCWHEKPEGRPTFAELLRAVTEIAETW

off-target kinases [6] = biological target: T2, off-target kinases (Homo sapiens, UniProt Q04771); details: ACVR1 (ALK2), LanthaScreen Binding
T2 sequence (Q04771 21-509): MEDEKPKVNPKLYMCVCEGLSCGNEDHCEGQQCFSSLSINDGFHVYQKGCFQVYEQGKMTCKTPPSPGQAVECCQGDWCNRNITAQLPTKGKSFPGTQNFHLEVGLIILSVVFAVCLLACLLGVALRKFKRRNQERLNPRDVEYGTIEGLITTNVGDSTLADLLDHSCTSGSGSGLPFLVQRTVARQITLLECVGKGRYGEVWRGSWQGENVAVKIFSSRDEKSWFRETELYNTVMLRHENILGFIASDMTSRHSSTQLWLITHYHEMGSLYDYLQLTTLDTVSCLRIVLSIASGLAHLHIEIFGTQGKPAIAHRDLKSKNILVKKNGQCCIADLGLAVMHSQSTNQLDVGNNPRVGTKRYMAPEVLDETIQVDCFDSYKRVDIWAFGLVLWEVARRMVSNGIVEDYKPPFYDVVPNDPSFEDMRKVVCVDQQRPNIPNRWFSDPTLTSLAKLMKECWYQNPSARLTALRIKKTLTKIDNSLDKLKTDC

off-target kinases [7] = biological target: off-target kinases (Homo sapiens, UniProt Q9P286); details: PAK7 (KIAA1264), ATP Km app, ZLYTE
off-target kinases (Homo sapiens, UniProt Q9P286), sequence (Q9P286 whole entry): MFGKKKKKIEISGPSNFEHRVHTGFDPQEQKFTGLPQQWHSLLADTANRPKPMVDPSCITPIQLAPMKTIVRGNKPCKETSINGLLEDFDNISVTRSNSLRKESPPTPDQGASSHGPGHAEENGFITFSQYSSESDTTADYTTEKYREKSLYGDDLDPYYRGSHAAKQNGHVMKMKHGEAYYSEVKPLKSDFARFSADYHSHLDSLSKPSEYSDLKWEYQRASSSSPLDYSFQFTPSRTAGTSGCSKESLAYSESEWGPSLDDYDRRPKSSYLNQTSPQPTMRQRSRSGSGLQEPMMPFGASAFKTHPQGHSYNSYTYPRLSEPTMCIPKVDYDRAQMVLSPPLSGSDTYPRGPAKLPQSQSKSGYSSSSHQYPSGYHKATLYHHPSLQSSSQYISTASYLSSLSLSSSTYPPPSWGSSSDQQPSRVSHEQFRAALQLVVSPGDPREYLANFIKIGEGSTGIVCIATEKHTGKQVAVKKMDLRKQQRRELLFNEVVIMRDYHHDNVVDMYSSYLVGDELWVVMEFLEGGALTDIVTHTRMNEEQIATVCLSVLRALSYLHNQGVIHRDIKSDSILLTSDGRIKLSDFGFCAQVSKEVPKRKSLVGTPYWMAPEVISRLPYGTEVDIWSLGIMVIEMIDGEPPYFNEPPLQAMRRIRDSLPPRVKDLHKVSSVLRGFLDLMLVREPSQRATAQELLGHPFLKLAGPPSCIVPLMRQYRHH

off-target kinases [8] = biological target: off-target kinases (Homo sapiens, UniProt Q9UM73); details: ALK, ZLYTE, ATP Km app
off-target kinases (Homo sapiens, UniProt Q9UM73), sequence (Q9UM73 19-1620): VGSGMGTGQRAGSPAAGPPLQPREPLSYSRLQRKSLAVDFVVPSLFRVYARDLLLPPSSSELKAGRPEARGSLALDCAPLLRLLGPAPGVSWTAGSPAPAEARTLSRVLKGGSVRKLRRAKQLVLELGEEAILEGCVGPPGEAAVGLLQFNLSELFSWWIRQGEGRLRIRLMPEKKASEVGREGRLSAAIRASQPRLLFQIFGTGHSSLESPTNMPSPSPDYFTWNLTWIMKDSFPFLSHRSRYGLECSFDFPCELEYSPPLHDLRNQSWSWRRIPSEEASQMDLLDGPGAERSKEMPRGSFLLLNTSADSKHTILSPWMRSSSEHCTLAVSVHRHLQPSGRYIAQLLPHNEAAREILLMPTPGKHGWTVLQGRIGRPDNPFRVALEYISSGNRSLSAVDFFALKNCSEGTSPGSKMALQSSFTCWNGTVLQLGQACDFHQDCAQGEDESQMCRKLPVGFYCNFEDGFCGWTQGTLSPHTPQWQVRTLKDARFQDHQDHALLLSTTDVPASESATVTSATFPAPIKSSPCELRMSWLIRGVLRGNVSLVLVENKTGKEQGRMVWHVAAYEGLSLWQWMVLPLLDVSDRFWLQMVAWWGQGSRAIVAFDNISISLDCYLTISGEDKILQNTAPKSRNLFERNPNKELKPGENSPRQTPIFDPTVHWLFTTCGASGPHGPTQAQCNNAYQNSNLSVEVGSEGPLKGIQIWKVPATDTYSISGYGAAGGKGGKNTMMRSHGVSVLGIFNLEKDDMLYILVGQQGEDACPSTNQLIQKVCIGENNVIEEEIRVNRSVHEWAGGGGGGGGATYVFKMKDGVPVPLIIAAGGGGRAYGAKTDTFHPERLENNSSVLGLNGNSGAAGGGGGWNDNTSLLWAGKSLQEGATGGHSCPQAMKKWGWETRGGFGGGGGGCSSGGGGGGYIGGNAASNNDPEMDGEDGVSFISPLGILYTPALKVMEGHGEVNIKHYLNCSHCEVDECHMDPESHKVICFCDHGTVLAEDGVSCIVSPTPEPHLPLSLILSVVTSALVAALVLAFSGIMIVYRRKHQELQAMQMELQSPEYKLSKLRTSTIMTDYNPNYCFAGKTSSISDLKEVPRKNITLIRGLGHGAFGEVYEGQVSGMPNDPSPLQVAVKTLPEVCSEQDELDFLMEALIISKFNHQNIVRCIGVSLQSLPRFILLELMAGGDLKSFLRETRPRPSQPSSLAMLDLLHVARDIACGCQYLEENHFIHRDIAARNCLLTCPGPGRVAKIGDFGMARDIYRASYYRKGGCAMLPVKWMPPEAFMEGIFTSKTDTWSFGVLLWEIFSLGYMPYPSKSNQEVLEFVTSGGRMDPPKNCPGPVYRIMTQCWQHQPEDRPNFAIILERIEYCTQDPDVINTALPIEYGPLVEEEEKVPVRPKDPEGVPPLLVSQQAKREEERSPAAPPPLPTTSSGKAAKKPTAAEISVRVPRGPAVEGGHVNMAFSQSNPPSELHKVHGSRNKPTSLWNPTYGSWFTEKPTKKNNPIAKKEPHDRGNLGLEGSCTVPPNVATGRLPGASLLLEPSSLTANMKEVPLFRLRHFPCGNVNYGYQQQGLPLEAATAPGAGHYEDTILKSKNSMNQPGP

## N#Cc1cc(-c2ncnc(Nc3ccc(N4CCN(C5COC5)CC4)cc3)n2)ccc1OC1CCOCC1 [Compound 1, 5-(4-((4-(4-(oxetan-3-yl)piperazin-1-yl)phenyl)amino)-1,3,5-triazin-2-yl)-2-((tetrahydro-2H-pyran-4-yl)oxy)benzonitrile]
off-target kinases [1]; read-out: % Inhibition 1
  inhibition: 26%
off-target kinases [1]; read-out: % Inhibition 2
  inhibition: 34%
off-target kinases [1]; read-out: % Inhibition Avg
  inhibition: 30%
off-target kinases [2]; read-out: % Inhibition 1
  inhibition: 40%
off-target kinases [2]; read-out: % Inhibition 2
  inhibition: 32%
off-target kinases [2]; read-out: % Inhibition Avg
  inhibition: 36%
off-target kinases [3]; read-out: % Inhibition 1
  inhibition: 51%
off-target kinases [3]; read-out: % Inhibition 2
  inhibition: 51%
off-target kinases [3]; read-out: % Inhibition Avg
  inhibition: 51%
off-target kinases [4]; read-out: % Inhibition 1
  inhibition: 33%
off-target kinases [4]; read-out: % Inhibition 2
  inhibition: 38%
off-target kinases [4]; read-out: % Inhibition Avg
  inhibition: 35%
off-target kinases [5]; read-out: % Inhibition 1
  inhibition: 27%
off-target kinases [5]; read-out: % Inhibition 2
  inhibition: 36%
off-target kinases [5]; read-out: % Inhibition Avg
  inhibition: 31%
off-target kinases [6]; read-out: % Inhibition 1
  inhibition: 85%
off-target kinases [6]; read-out: % Inhibition 2
  inhibition: 84%
off-target kinases [6]; read-out: % Inhibition Avg
  inhibition: 84%
off-target kinases [7]; read-out: % Inhibition 1
  inhibition: 77%
off-target kinases [7]; read-out: % Inhibition 2
  inhibition: 79%
off-target kinases [7]; read-out: % Inhibition Avg
  inhibition: 78%
off-target kinases [8]; read-out: % Inhibition 1
  inhibition: 4%
off-target kinases [8]; read-out: % Inhibition 2
  inhibition: -2%
off-target kinases [8]; read-out: % Inhibition Avg
  inhibition: 1%
